Data from patent publication US11964943B2, “3,5-diarylidenyl-n-substituted-piperid-4-one-derived inhibitors of Stat3 pathway activity and uses thereof” (priority 2017, dated 2024).
“Also recorded” adds a separate entry of the source. Like-named read-outs stand apart in the source and are kept apart here.

Legend:
[1] = system: MDA-MB-435 cancer cell line; experiment: SRB antiproliferative assay, MDA-MB-435; assay type: cell-based, human
[2] = system: Stat3, Stat1α, Stat5a and Stat5b; experiment: Stat selectivity: immunoblotting and TransAM STAT Family ELISA; assay type: cell-based; details: DU145 cells, 18 h
Protocol: The Active Motif TransAMX Stat Family ELISA kit was utilized to study the specificity of IE-8 for Stat3, 20 μg of whole cell extract was used and Stat activity was assessed according to the manufacturer's protocol. Briefly, 30 μl of Complete Binding Buffer (provided and supplemented with 2 μl of 1M DTT and 10 μl of Herring sperm DNA per ml of Binding Buffer AM6) was added to each well used. 20 μl of sample (nuclear extract diluted in Complete Lysis Buffer) per well, were used, while Complete Lysis Buffer (provided and supplemented with 1 μl of 1 M DTT and 10 μl of Protease Inhibitor Cocktail per ml of Lysis Buffer AM1) only, was used for blanks. The plate was sealed with the provided adhesive cover and incubated for 1 hour at room temperature, with mild agitation, on a rocking platform. At the end of incubation, the wells were washed 3 times with 200 μl 1× Wash Buffer (provided). 100 μl of one of the diluted Stat antibodies (1:1000 dilution in 1× Antibody binding buffer for the Stat3, Stat1, Stat5A and Stat5B antibodies) were added to all the used wells. […] Absorbance was read on a spectrophotometer immediately thereafter, at 450 nm, with a reference wavelength of 655 nm.
TransAM® STAT Family ELIS Assay. […] 20 μg of whole cell extract was used and STAT activity was assessed according to the manufacturers protocol.

[3] = system: HCT116-oxaliplatin resistant spheroids; experiment: CellTiter-Glo 3D cell viability assay, HCT116-oxaliplatin resistant spheroids; assay type: cell-based; details: 96 h exposure, 3D CellTiter-Glo
Protocol: For cell spheroid formation, HCT116-oxaliplatin resistant cells, A2780-cisplatin resistant cells, and HT1080 cells were seeded in Corning® Spheroid opaque-walled 96 well Microplates (ultra-low attachment; Nuclon™ Sphera™, Thermofisher) at densities of 2000 cells/well in 100 μl of cell solution and allowed to grow for 4 days, before any manipulation.
Spheroid cells were treated by adding 100 μl of 2-fold the desired compound concentration and incubated at 37° C. for 96 h. At the end of drug incubation, both the plates and the CellTitre-Glo® reagent (previously thawn overnight in the fridge) were equilibrated at room temperature for at least 30 min. Subsequently, 100 μl of cell solution were carefully removed from each well, without disrupting the spheroid and equal volume of CellTitre-Glo® reagent was added. Cell lysis was performed by vigorously shaking the plate for 5 min. To stabilize the luminescent signal, the plate was incubated in the dark at RT for another 30 min before luminescence was recorded on a plate reader. The cell viability of treated samples was normalised to the untreated controls.
The cytotoxicity studies in spheroids were conducted using the CellTiter-Glo® 3D Cell viability assay (Promega) following the instructions of the manufacturer.

B16 (melanoma) cells = experiment: MTT cytotoxicity assay, B16 cells
L1210 (lymphoma) cells = experiment: MTT cytotoxicity assay, L1210 cells

| Compound | IC50 ([1]; Homo sapiens, MDA-MB-435, 48 h exposure) [µM] | selectivity for Stat3 over Stat1, Stat5a and Stat5b [2] | IC50 [3] [nM] | IC50 (B16 (melanoma) cells; Mus musculus, B16, 72 h, read-out: IC50 (μM) B16, 72 h exposure, MTT, mean of three independent experiments) [µM] | IC50 (L1210 (lymphoma) cells; Mus musculus, L1210, 72 h, read-out: IC50 (μM) L1210, 72 h exposure, MTT, mean of three independent experiments) [µM] | IC50 ([1]; 48 h exposure) [µM] | IC50 (B16 (melanoma) cells; read-out: IC50 (μM) B16, 72 h exposure, MTT, mean of three independent experiments) [µM] | IC50 (L1210 (lymphoma) cells; read-out: IC50 (μM) L1210, 72 h exposure, MTT, mean of three independent experiments) [µM] |
| --- | --- | --- | --- | --- | --- | --- | --- | --- |
| COc1cc(/C=C2\CN(c3ccccc3)C/C(=C\c3cc(OC)c(OC)c(OC)c3)C2=O)cc(OC)c1OC [IE-8, 3,5-Di(3,4,5-trimethoxybenzylidene)-1-phenylpiperidin-4-one] | 0.15 | selectively inhibits pStat3^Tyr705 without inhibiting pStat1^Tyr701 or pStat5^Tyr694; also recorded: selectively inhibit the Stat3-DNA binding activity over that of Stat1α, Stat5a and Stat5b; also recorded: selective for Stat3 over Stat1, Stat5a, and Stat5b | 8500 | 0.3 | 0.36 | – | – | – |
| 3,5-Di(3,4,5-trimethoxybenzylidene)-1-phenylpiperidin-4-one [IE-8] | – | selective for STAT3 over STAT1 | 8500 | – | – | 0.15 | ~0.3 | ~0.3 |
